Measured values: patent US20240124417A1, “COMPOUNDS USEFUL AS IMMUNOMODULATORS” (Bristol-Myers Squibb Company, priority 2019, published 2024)

Target: T1, PD-1/PD-L1 (Homo sapiens, UniProt Q9NZQ7)
T1 construct: TVMV protease site linker (C); made in house; host or cells: HEK293T cells
Test: PD-1/PD-L1 Homogenous Time-Resolved Fluorescence (HTRF) binding assay
Conditions: PD-L1-His 10 nM, PD-1-Ig 20 nM
Summary of the method: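 Inhibitors pre-incubated 15 min with PD-L1-His extracellular domain (10 nM final) in dPBS with 0.1% BSA and 0.05% Tween-20, then PD-1-Ig (20 nM final) added for a further 15 min. Read-out by HTRF with europium cryptate anti-Ig (1 nM) and APC anti-His (20 nM). Related pairs: PD-1-Ig/PD-L2-His (20/5 nM), CD80-His/PD-L1-Ig (100/10 nM).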

T1 sequence (Q9NZQ7 18-239): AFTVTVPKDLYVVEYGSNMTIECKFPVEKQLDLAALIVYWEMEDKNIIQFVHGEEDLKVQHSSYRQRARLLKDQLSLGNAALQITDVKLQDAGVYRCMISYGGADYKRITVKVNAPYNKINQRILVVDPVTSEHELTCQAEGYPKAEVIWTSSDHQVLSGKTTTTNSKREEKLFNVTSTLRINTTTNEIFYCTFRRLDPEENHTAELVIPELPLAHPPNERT

Row | IC50 [nM] | Structure (SMILES)
1 | 3.6 | Cc1c(COc2cc(OCc3cncc(C#N)c3)c(CN3CCc4c(ncn4C)C3)cc2Cl)cccc1-c1cccc(OCC2CCCN(C)C2)c1Cl (stereo not drawn) [Example 2592, 5-((4-chloro-5-((2′-chloro-2-methyl-3′-((1-methylpiperidin-3-yl)methoxy)-[1,1′-biphenyl]-3-yl)methoxy)-2-((1-methyl-1,4,6,7-tetrahydro-5H-imidazo[4,5-c]pyridin-5-yl)methyl)phenoxy)methyl)nicotinonitrile]
2 | 3 | Cc1c(COc2cc(OCc3cncc(C#N)c3)c(CNCCc3nc4ccccc4[nH]3)cc2Cl)cccc1-c1cccc(OCC2CCCN(C)C2)c1Cl (stereo not drawn) [Example 2593, 5-((2-(((2-(1H-benzo[d]imidazol-2-yl)ethyl)amino)methyl)-4-chloro-5-((2′-chloro-2-methyl-3′-((1-methylpiperidin-3-yl)methoxy)-[1,1′-biphenyl]-3-yl)methoxy)phenoxy)methyl)nicotinonitrile]
3 | 0.7 | Cc1ncsc1CCNCc1cc(Cl)c(OCc2cccc(-c3cccc(OCC4CCCN(C)C4)c3Cl)c2C)cc1OCc1cncc(C#N)c1 (stereo not drawn) [Example 2594, 5-((4-chloro-5-((2′-chloro-2-methyl-3′-((1-methylpiperidin-3-yl)methoxy)-[1,1′-biphenyl]-3-yl)methoxy)-2-(((2-(4-methylthiazol-5-yl)ethyl)amino)methyl)phenoxy)methyl)nicotinonitrile]
4 | 2 | COCc1noc(CNCc2cc(Cl)c(OCc3cccc(-c4cccc(OCC5CCCN(C)C5)c4Cl)c3C)cc2OCc2cncc(C#N)c2)n1 (stereo not drawn) [Example 2595, 5-((4-chloro-5-((2′-chloro-2-methyl-3′-((1-methylpiperidin-3-yl)methoxy)-[1,1′-biphenyl]-3-yl)methoxy)-2-((((3-(methoxymethyl)-1,2,4-oxadiazol-5-yl)methyl)amino)methyl)phenoxy)methyl)nicotinonitrile]
5 | 2.9 | Cc1c(COc2cc(OCc3cncc(C#N)c3)c(CNCc3cc(C)n(C)n3)cc2Cl)cccc1-c1cccc(OCC2CCCN(C)C2)c1Cl (stereo not drawn) [Example 2596, 5-((4-chloro-5-((2′-chloro-2-methyl-3′-((1-methylpiperidin-3-yl)methoxy)-[1,1′-biphenyl]-3-yl)methoxy)-2-((((1,5-dimethyl-1H-pyrazol-3-yl)methyl)amino)methyl)phenoxy)methyl)nicotinonitrile]
6 | 2.9 | Cc1noc(C)c1CNCc1cc(Cl)c(OCc2cccc(-c3cccc(OCC4CCCN(C)C4)c3Cl)c2C)cc1OCc1cncc(C#N)c1 (stereo not drawn) [Example 2597, 5-((4-chloro-5-((2′-chloro-2-methyl-3′-((1-methylpiperidin-3-yl)methoxy)-[1,1′-biphenyl]-3-yl)methoxy)-2-((((3,5-dimethylisoxazol-4-yl)methyl)amino)methyl)phenoxy)methyl)nicotinonitrile]
7 | 1 | Cc1c(COc2cc(OCc3cncc(C#N)c3)c(CNCCc3cscn3)cc2Cl)cccc1-c1cccc(OCC2CCCN(C)C2)c1Cl (stereo not drawn) [Example 2598, 5-((4-chloro-5-((2′-chloro-2-methyl-3′-((1-methylpiperidin-3-yl)methoxy)-[1,1′-biphenyl]-3-yl)methoxy)-2-(((2-(thiazol-4-yl)ethyl)amino)methyl)phenoxy)methyl)nicotinonitrile]
8 | 1.7 | Cc1n[nH]c(C)c1CNCc1cc(Cl)c(OCc2cccc(-c3cccc(OCC4CCCN(C)C4)c3Cl)c2C)cc1OCc1cncc(C#N)c1 (stereo not drawn) [Example 2599, 5-((4-chloro-5-((2′-chloro-2-methyl-3′-((1-methylpiperidin-3-yl)methoxy)-[1,1′-biphenyl]-3-yl)methoxy)-2-((((3,5-dimethyl-1H-pyrazol-4-yl)methyl)amino)methyl)phenoxy)methyl)nicotinonitrile]
9 | 7.2 | Cc1nc2c(s1)CN(Cc1cc(Cl)c(OCc3cccc(-c4cccc(OCC5CCCN(C)C5)c4Cl)c3C)cc1OCc1cncc(C#N)c1)CC2 (stereo not drawn) [Example 2600, 5-((4-chloro-5-((2′-chloro-2-methyl-3′-((1-methylpiperidin-3-yl)methoxy)-[1,1′-biphenyl]-3-yl)methoxy)-2-((2-methyl-6,7-dihydrothiazolo[5,4-c]pyridin-5(4H)-yl)methyl)phenoxy)methyl)nicotinonitrile]
10 | 0.6 | Cc1c(COc2cc(OCc3cncc(C#N)c3)c(CNC3CCc4[nH]ncc4C3)cc2Cl)cccc1-c1cccc(OCC2CCCN(C)C2)c1Cl (stereo not drawn) [Example 2601, 5-((4-chloro-5-((2′-chloro-2-methyl-3′-((1-methylpiperidin-3-yl)methoxy)-[1,1′-biphenyl]-3-yl)methoxy)-2-(((4,5,6,7-tetrahydro-1H-indazol-5-yl)amino)methyl)phenoxy)methyl)nicotinonitrile]
11 | 1.6 | Cc1c(COc2cc(OCc3cncc(C#N)c3)c(CNCc3cc4ccccn4n3)cc2Cl)cccc1-c1cccc(OCC2CCCN(C)C2)c1Cl (stereo not drawn) [Example 2602, 5-((4-chloro-5-((2′-chloro-2-methyl-3′-((1-methylpiperidin-3-yl)methoxy)-[1,1′-biphenyl]-3-yl)methoxy)-2-(((pyrazolo[1,5-a]pyridin-2-ylmethyl)amino)methyl)phenoxy)methyl)nicotinonitrile]
12 | 0.9 | Cc1nc(CNCc2cc(Cl)c(OCc3cccc(-c4cccc(OCC5CCCN(C)C5)c4Cl)c3C)cc2OCc2cncc(C#N)c2)no1 (stereo not drawn) [Example 2603, 5-((4-chloro-5-((2′-chloro-2-methyl-3′-((1-methylpiperidin-3-yl)methoxy)-[1,1′-biphenyl]-3-yl)methoxy)-2-((((5-methyl-1,2,4-oxadiazol-3-yl)methyl)amino)methyl)phenoxy)methyl)nicotinonitrile]
13 | 2.3 | Cc1nnc(CNCc2cc(Cl)c(OCc3cccc(-c4cccc(OCC5CCCN(C)C5)c4Cl)c3C)cc2OCc2cncc(C#N)c2)[nH]1 (stereo not drawn) [Example 2604, 5-((4-chloro-5-((2′-chloro-2-methyl-3′-((1-methylpiperidin-3-yl)methoxy)-[1,1′-biphenyl]-3-yl)methoxy)-2-((((5-methyl-4H-1,2,4-triazol-3-yl)methyl)amino)methyl)phenoxy)methyl)nicotinonitrile]
14 | 0.6 | Cc1c(COc2cc(OCc3cncc(C#N)c3)c(CNCCc3nc4ccccc4n3C)cc2Cl)cccc1-c1cccc(OCC2CCCN(C)C2)c1Cl (stereo not drawn) [Example 2605, 5-((4-chloro-5-((2′-chloro-2-methyl-3′-((1-methylpiperidin-3-yl)methoxy)-[1,1′-biphenyl]-3-yl)methoxy)-2-(((2-(1-methyl-1H-benzo[d]imidazol-2-yl)ethyl)amino)methyl)phenoxy)methyl)nicotinonitrile]
15 | 1.4 | Cc1c(COc2cc(OCc3cncc(C#N)c3)c(CNCc3ccc4cc[nH]c4c3)cc2Cl)cccc1-c1cccc(OCC2CCCN(C)C2)c1Cl (stereo not drawn) [Example 2606, 5-((2-((((1H-indol-6-yl)methyl)amino)methyl)-4-chloro-5-((2′-chloro-2-methyl-3′-((1-methylpiperidin-3-yl)methoxy)-[1,1′-biphenyl]-3-yl)methoxy)phenoxy)methyl)nicotinonitrile]
16 | 4.2 | Cc1c(COc2cc(OCc3cncc(C#N)c3)c(CNCc3cc(C4CC4)on3)cc2Cl)cccc1-c1cccc(OCC2CCCN(C)C2)c1Cl (stereo not drawn) [Example 2607, 5-((4-chloro-5-((2′-chloro-2-methyl-3′-((1-methylpiperidin-3-yl)methoxy)-[1,1′-biphenyl]-3-yl)methoxy)-2-((((5-cyclopropylisoxazol-3-yl)methyl)amino)methyl)phenoxy)methyl)nicotinonitrile]
17 | 2.3 | Cc1c(COc2cc(OCc3cncc(C#N)c3)c(CN3CCC(c4cc[nH]n4)C3)cc2Cl)cccc1-c1cccc(OCC2CCCN(C)C2)c1Cl (stereo not drawn) [Example 2608, 5-((2-((3-(1H-pyrazol-3-yl)pyrrolidin-1-yl)methyl)-4-chloro-5-((2′-chloro-2-methyl-3′-((1-methylpiperidin-3-yl)methoxy)-[1,1′-biphenyl]-3-yl)methoxy)phenoxy)methyl)nicotinonitrile]
18 | 1.1 | Cc1nc2ccc(CNCc3cc(Cl)c(OCc4cccc(-c5cccc(OCC6CCCN(C)C6)c5Cl)c4C)cc3OCc3cncc(C#N)c3)cc2[nH]1 (stereo not drawn) [Example 2609, 5-((4-chloro-5-((2′-chloro-2-methyl-3′-((1-methylpiperidin-3-yl)methoxy)-[1,1′-biphenyl]-3-yl)methoxy)-2-((((2-methyl-1H-benzo[d]imidazol-6-yl)methyl)amino)methyl)phenoxy)methyl)nicotinonitrile]
19 | 0.8 | Cc1c(COc2cc(OCc3cncc(C#N)c3)c(CNCc3ccc4c(N)n[nH]c4c3)cc2Cl)cccc1-c1cccc(OCC2CCCN(C)C2)c1Cl (stereo not drawn) [Example 2610, 5-((2-((((3-amino-1H-indazol-6-yl)methyl)amino)methyl)-4-chloro-5-((2′-chloro-2-methyl-3′-((1-methylpiperidin-3-yl)methoxy)-[1,1′-biphenyl]-3-yl)methoxy)phenoxy)methyl)nicotinonitrile]
20 | 5.9 | Cc1c(COc2cc(OCc3cncc(C#N)c3)c(CNCc3nc4ccccc4s3)cc2Cl)cccc1-c1cccc(OCC2CCCN(C)C2)c1Cl (stereo not drawn) [Example 2611, 5-((2-(((benzo[d]thiazol-2-ylmethyl)amino)methyl)-4-chloro-5-((2′-chloro-2-methyl-3′-((1-methylpiperidin-3-yl)methoxy)-[1,1′-biphenyl]-3-yl)methoxy)phenoxy)methyl)nicotinonitrile]
21 | 7.3 | Cc1c(COc2cc(OCc3cncc(C#N)c3)c(CNCc3ncc(-c4ccccc4)o3)cc2Cl)cccc1-c1cccc(OCC2CCCN(C)C2)c1Cl (stereo not drawn) [Example 2612, 5-((4-chloro-5-((2′-chloro-2-methyl-3′-((1-methylpiperidin-3-yl)methoxy)-[1,1′-biphenyl]-3-yl)methoxy)-2-((((5-phenyloxazol-2-yl)methyl)amino)methyl)phenoxy)methyl)nicotinonitrile]
